Structures can show the parent of a compound that is named as a salt.
Columns and labels:
[1] = hydrolysate; as worded; cited from earlier work
[2] = physchem
Description: Therefore, propylene glycol was used as a basic solvent in the formulation of the present patent.

Solubility in propylene glycol (in words) [2]	Molecule	other results
	COc1ccc([C@@H]2Sc3ccccc3N(CCN(C)C)C(=O)[C@@H]2O)cc1 [deacetyldiltiazem]	Activity relative to the activity of diltiazem hydrochloride [1]: 20%-40%
	COc1ccc([C@@H]2Sc3ccccc3N(CCN(C)C)C(=O)[C@@H]2OC(C)=O)cc1 [diltiazem hydrochloride, reference compound]	solubility ([2]; organic solvent or mixture): 79 mg/mL
insoluble	hydroxypropyl methylcellulose	
insoluble	sodium carboxymethylcellulose	

Reference: patent US12102683B2 (Auson Pharmaceuticals, Inc., priority 2022, dated 2024)
